Measured values published in patent publication US20070202079A1, “Therapeutic compositions and methods useful in modulating protein tyrosine phosphatases” (priority 2006, published 2007).
Like-named read-outs stand apart in the source and are kept apart here.

Assays:
Type in all cases: biochemical
[1] = biological target: T1, PRL-1 (Homo sapiens, UniProt Q93096); test: in vitro PTPase assay, recombinant PRL-1; settings: 0.1-100 μg/ml
T1 construct: cDNAs of human PRL-1, PRL-2 and PRL-3 coding region were derived by RT-PCR; made in house; host or cells: DH5a bacteria (E. coli)
Excerpt: (§1) Sodium stibogluconate, suramin, sodium orthovanadate and GST fusion protein of SHP-1 have been described previously (Pathak et al., J. Immunol. 167, 3391 (2001)). Meglumine antimonate was obtained from Aventis. cDNAs of human PRL-1, PRL-2 and PRL-3 coding region were derived by RT-PCR from H9 cells (Safai, et al., Lancet 1, 1438 (1984)) and inserted in frame into the pGEX vector. cDNA of PRL-1R86 was generated by recombinant DNA technique using PRL-1 cDNA as template following established procedures (Jiao, et al., Mol. Cell. Biol. 16, 6985 (1996)). […]
(§2) In vitro PTPase assays were used to determine the effects of compounds on recombinant PTPases, following established procedures using a synthetic phosphotyrosine peptide or DiFMUP as the substrate (Pathak et al., J. Immunol. 167, 3391 (2001)). […] PTPase activity of individual reactions was measured by adding 100 μL of malachite green solution (UBI) and then quantifying the amounts of free phosphate cleaved by the PTPase from the peptide substrate by spectrometry (OD660 nm). […] Relative PTPase activities were calculated based on the formula: (PTPase activity in the presence of an inhibitory compound/PTPase activity in the absence of the compound)× 100%. […]

[2] = biological target: T2, PRL-3 (Homo sapiens, UniProt O75365); test: in vitro PTPase assay, recombinant PRL-3; settings: for remaining PRL-3 PTPase activity: 0.1-100 μg/ml
T2 construct: cDNAs of human PRL-1, PRL-2 and PRL-3 coding region were derived by RT-PCR; made in house; host or cells: DH5a bacteria (E. coli)
Excerpt: Sodium stibogluconate, suramin, sodium orthovanadate and GST fusion protein of SHP-1 have been described previously (Pathak et al., J. Immunol. 167, 3391 (2001)). Meglumine antimonate was obtained from Aventis. cDNAs of human PRL-1, PRL-2 and PRL-3 coding region were derived by RT-PCR from H9 cells (Safai, et al., Lancet 1, 1438 (1984)) and inserted in frame into the pGEX vector. cDNA of PRL-1R86 was generated by recombinant DNA technique using PRL-1 cDNA as template following established procedures (Jiao, et al., Mol. Cell. Biol. 16, 6985 (1996)). GST fusion proteins of the PRL phosphatases were prepared from DH5a bacteria transformed with the pGEX fusion protein constructs as described previously (Yi, et al., Mol. Cell. Biol. 12, 836 (1992)). cDNAs encoding the PRLs tagged at the N-termini with the Flag epitope (Castrucci, et al., J. Virol. 66, 4647 (1992)) were generated via recombinant DNA technique, sequenced to confirm their identities and cloned into the pBabepuro vector (Yang, et al., Blood 91, 3746 (1998)). Anti-Flag monoclonal antibody (M2, Sigma) was purchased from a commercial source. A synthetic phosphotyrosine peptide (Arg-Arg-Leu-Ile-Glu-Asp-Ala-Gle-Tyr-Al- -a-Ala-Arg-Gly (SEQ ID NO: 3), wherein the tyrosine is phosphorylated; UBI) and DiFMUP (6, 8-difluoro-4-methylumbelliferyl phosphate, Molecular Probes) were purchased as substrates for PTPase assays.
In vitro PTPase assays were used to determine the effects of compounds on recombinant PTPases, following established procedures using a synthetic phosphotyrosine peptide or DiFMUP as the substrate (Pathak et al., J. Immunol. 167, 3391 (2001)). Briefly, individual PTPases (0.1 μg/reaction) in 50 μL of PTPase buffer (50 mM Tris, pH 7.4) were incubated at 22° C. for 10 minutes or as indicated in the absence or presence of inhibitory compounds. Substrates (0.2 mM phosphotyrosine peptide) were then added and allowed to react at 22° C. for 18 hrs. PTPase activity of individual reactions was measured by adding 100 μL of malachite green solution (UBI) and then quantifying the amounts of free phosphate cleaved by the PTPase from the peptide substrate by spectrometry (OD660 nm). PTPase assays using DiFMUP as a substrate were conducted following a previously described procedure (Matter, et al., Biochem. Biophys. Res. Comm. 283, 1061 (2001)). Relative PTPase activities were calculated based on the formula: (PTPase activity in the presence of an inhibitory compound/PTPase activity in the absence of the compound)× 100%. To assess the reversibility of PTPase inhibition, GST fusion proteins of the PTPases bound on glutathione beads (Pharmacia) were pre-incubated with cold Tris buffer (50 mM Tris, pH 7.0) or Tris buffer containing the inhibitor at 4° C. for 30 minutes. The beads were then washed three times in cold Tris buffer or not washed prior to subjecting to in vitro PTPase assays.

[3] = biological target: T3, PRL-2 (Homo sapiens, UniProt Q12974); test: in vitro PTPase assay, recombinant PRL-2
T3 construct: cDNAs of human PRL-1, PRL-2 and PRL-3 coding region were derived by RT-PCR; made in house; host or cells: DH5a bacteria (E. coli)
Excerpt: as §1, §2

[4] = biological target: T4, MKP1 (Homo sapiens, UniProt P28562); test: in vitro PTPase assay, GST/MKP1; settings: for inhibition of MKP1: levamisole, pentamidine, ketoconazole
T4 construct: a pGEX construct containing the coding region of MKP1 cDNA derived by RT-PCR; made in house; host or cells: DH5a bacteria (E. coli)
T4 sequence (P28562 1-367): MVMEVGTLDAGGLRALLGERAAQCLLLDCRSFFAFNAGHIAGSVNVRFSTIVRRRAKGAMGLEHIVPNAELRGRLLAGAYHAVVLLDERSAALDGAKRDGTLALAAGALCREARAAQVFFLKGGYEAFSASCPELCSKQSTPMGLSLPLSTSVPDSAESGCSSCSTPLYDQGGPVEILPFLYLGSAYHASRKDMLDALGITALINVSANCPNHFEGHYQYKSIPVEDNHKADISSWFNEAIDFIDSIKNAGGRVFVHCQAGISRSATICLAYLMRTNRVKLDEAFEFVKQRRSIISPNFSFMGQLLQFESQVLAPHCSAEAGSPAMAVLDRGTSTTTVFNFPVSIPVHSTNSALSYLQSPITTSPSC
Description: In vitro PTPase activities were measured using the commercial protein tyrosine phosphatase assay kit (Upstate Biotechnology, Inc. (“UBI”)) following established procedure known to one of skill in the art. This assay measures the in vitro dephosphorylation of a synthetic phosphotyrosine peptide of the sequence Arg-Arg-Leu-Ile-Glu-Asp-Ala-Gle-T- -yr-Ala-Ala-Arg-Gly, wherein the tyrosine is phosphorylated (SEQ ID NO: 3). Briefly, 0.01 μg of GST/PTPase fusion proteins was incubated in 50 μl of Tris buffer (10 mM Tris, pH 7.4) containing different concentrations of inhibitors or chemicals (0-1,000 μg/ml) at 22° C. for 10 minutes, followed by addition of 0.2 mM of the phosphotyrosine peptide and incubation at 22° C. for 18 hours. 100 μl of Malachite Green solution was added and incubated for 5 minutes, and the absorbance at 660 nm was measured after 5 minutes.
(§3) In vitro PTPase assays were used to determine the effects of levamisole (Sigma), pentamidine (American Pharmaceutical Partners, Inc.), and ketoconazole (Sigma) on recombinant PTPases, following established procedures (Pathak et al., J. Immunol. 167, 3391 (2001); Pathak et al., Leukemia 16, 2285 (2002), Yi et al., J. Immunol. 169, 5978 (2002)) using a synthetic phosphotyrosine peptide or DiFMUP as the substrate as detailed above in section I.A.2.

[5] = test system: GSTm8; test: in vitro PTPase assay, GSTm8; settings: 3-4 μg/ml or 10-100 μg/ml
Excerpt: as §3

T2 sequence (O75365 whole entry): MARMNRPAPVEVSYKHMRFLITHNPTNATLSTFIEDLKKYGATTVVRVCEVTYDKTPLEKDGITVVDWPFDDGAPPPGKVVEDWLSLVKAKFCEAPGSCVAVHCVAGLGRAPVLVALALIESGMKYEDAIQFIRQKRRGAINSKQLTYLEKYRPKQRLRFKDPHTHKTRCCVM
T3 sequence (Q12974 whole entry): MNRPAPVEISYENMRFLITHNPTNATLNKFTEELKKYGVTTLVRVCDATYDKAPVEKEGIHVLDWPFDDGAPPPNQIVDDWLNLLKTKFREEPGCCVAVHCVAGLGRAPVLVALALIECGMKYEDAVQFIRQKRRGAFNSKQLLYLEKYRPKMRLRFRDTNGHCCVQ
T1 sequence (Q93096 whole entry): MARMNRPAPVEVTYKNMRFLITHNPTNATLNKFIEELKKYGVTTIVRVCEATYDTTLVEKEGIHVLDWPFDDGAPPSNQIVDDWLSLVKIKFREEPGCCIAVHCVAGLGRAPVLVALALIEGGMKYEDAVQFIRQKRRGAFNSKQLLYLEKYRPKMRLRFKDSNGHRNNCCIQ

| retained PRL-1 PTPase activity [1] | remaining PRL-3 PTPase activity [2] | activity against PRL-2 [3] | inhibition of MKP1 [4] | inhibitory activity against GSTm8 [5] | Structure (SMILES) | inhibition of PRL-3 after washing [2] | inactivation of PRL-3 with prolonged pre-incubation ([2]; 10 μg/ml, pre-incubation 30 or 60 minutes) | inhibitory activity against MKP1 [4] | inhibitory activity against MKP1 ([4]; listed as SS) |
| --- | --- | --- | --- | --- | --- | --- | --- | --- | --- |
| 70-80% | 20-30% | not effective | substantial inhibition | no obvious inhibitory activity | N=C(N)c1ccc(OCCCCCOc2ccc(C(=N)N)cc2)cc1 [pentamidine] | – | – | – | – |
| 60-70% | 25-40% | not effective | substantial inhibition | no obvious inhibitory activity | CC(=O)N1CCN(c2ccc(OCC3COC(Cn4ccnc4)(c4ccc(Cl)cc4Cl)O3)cc2)CC1 (centres unmarked) [ketoconazole] | – | – | – | – |
| – | – | – | – | – | O.O.O.O.O.O.O.O.O.O=C([O-])[C@@H]1[O][Sb]2([O-])([O][Sb]34([OH])[O][C@H]([C@H](O)CO)[C@H]([O]3)[C@H](C(=O)[O-])[O]4)[O][C@H]([C@H](O)CO)[C@@H]1[O]2.[Na+].[Na+].[Na+] [sodium stibogluconate] | not relieved by a washing process | nearly complete inactivation | no obvious inhibitory activity | no obvious effects |
